Patent EP4108244A1, “SS-LACTAM ANTIBIOTIC WITH SIGNIFICANT ACTIVITY AGAINST CANCER E.G. COLON MALIGNANCIES” (priority 2021, dated 2022)
Several values for one entry are separate records, joined by “and”; a condition that tells them apart may be missing. Equal entries are not always repeated. Marks after values point to notes of the source that are not given here.

Key:
Caco-2 cells = assay: MTT metabolic activity assay; type: cell-based, human; settings: Homo sapiens, 24 h post-treatment, 5-Fluorouracil 4µM, read-out: inhibition of proliferation (metabolic activity)
Experimental: (§1) Cells were plated at 2^∗104cells/ml in 96-well plates and incubated overnight. The following day, cells were treated in triplicate with Ceftazdime or 5-fluorouracil for 24-48 h, depending on the cell line used. Metabolic activity of the cells was studied using the MTT assay that measures the ability of metabolically active cells to convert tetrazolium salt into a blue formazan product, the absorbance of which is recorded at 540 nm by an ELISA reader (Bio-Rad iMark Microplate Reader).

DLD-1 cells [1] = assay: Caspase-3/7 activity assay; type: cell-based, human; settings: 48 h and 72 h, 5-FU 16 µM, CFT 100 µg/ml
Experimental: (§2) Caspase-3/7 activity was measured 48 h and 72 h post-treatment according to the manufacturer's protocol (Caspase-Glo-3/7 Assay, Promega Corp, Madison, WI, USA). Briefly, equal volume from treated cells and caspase-3/7 mixture were incubated at room temperature for 3 h and the luminescence was measured by a microplate reader.
DLD-1 cells were treated with CFT (100 µg/ml) or 5-Fluorouracil (16 µM). Caspase-3/7 activity was measured 48 h and 72 h post-treatment according to the manufacturer's protocol (Caspase-Glo-3/7 Assay, Promega Corp, Madison, WI, USA). Briefly, equal volume from treated cells and caspase 3/7 mixture were incubated at room temperature for 3 h and the luminescence was measured by a microplate reader.

DLD-1 cells [2] = assay: MTT metabolic activity assay; type: cell-based, human; settings: 48 h post-treatment, 5-Fluorouracil 16µM
Experimental: MTT assay was used to assess the proliferation rate of HCT-116 and DLD-1 cells. In this assay the ability of metabolically active cells to convert tetrazolium salt into a blue formazan product is measured. The absorption of the dissolved formazan was quantified at 540 nm by an ELISA reader (Bio-Rad iMark Microplate Reader).
Cells were plated at 2^∗104cells/ml in 96-well plates and incubated overnight. […] Metabolic activity of the cells was studied using the MTT assay that measures the ability of metabolically active cells to convert tetrazolium salt into a blue formazan product, the absorbance of which is recorded at 540 nm by an ELISA reader (Bio-Rad iMark Microplate Reader).

RAW 264.7 cells = assay: MTT metabolic activity assay on macrophages; type: cell-based, murine; settings: RAW 264.7
Experimental: as §1

DLD-1 cells [3] = assay: Cell cycle distribution, propidium iodide staining; type: cell-based, human; settings: CFT 100 µg/mL, CFP 50 µg/mL, 5-FU 16 µM, alone or combined, mean ± SE
Experimental: Propidium iodide (PI) staining was used to evaluate the effect of the different treatments on the cell cycle. […] 48 h and 72 h post-treatment, collected cells were fixed with ice-cold ethanol (70%) and stored at - 20 °C for at least 2 h. Fixed cells, which were washed with PBS and incubated at 37 °C for 1 h with 50 µl RNase (1 mg/ml) (Sigma Aldrich, Germany), were stained for 15 minutes with PI (Molecular Probes, Eugene, Oregon, USA). Cell cycle was monitored using BD FACSDiva™ and the percentage of cells in the different phases of the cell cycle (pre-Gi, G0/G1, S, and G2/M) phases was determined using BD FACSDiva™ Software.
Propidium iodide (PI) staining was used to evaluate the effect of the different treatments (Ceftazidime (100 µg/ml) or 5-Fluorouracil (16 µM)) on the cell cycle profile of DLD-1 cells. Briefly, DLD-1 cells were plated at 5^∗104/ml and treated for 48 h and 72 h. Collected cells were fixed with ice-cold ethanol (70%) and stored at -20°C for at least 2 h. Fixed cells, which were washed with PBS and incubated at 37°C for 1 h with 50 µl RNase (1 mg/ml) (Sigma Aldrich, Germany), were stained for 15 minutes with PI (Molecular Probes, Eugene, Oregon, USA). Cell cycle was monitored using BD FACSDiva™ and the percentage of cells in the different phases of the cell cycle (pre-Gi, G0/G1, S, and G2/M) phases was determined using BD FACSDiva™ Software.

HCT-116 cells [4] = assay: Cell cycle distribution, propidium iodide staining; type: cell-based, human; settings: for percentage of cells in G0/G1 / percentage of cells in G2/M / percentage of cells in Pre G1 / percentage of cells in S: CFT 100 µg/mL, CFP 50 µg/mL, 5-FU 8 µM, alone or combined, mean ± SE
Experimental: Propidium iodide (PI) staining was used to evaluate the effect of the different treatments on the cell cycle. […] Fixed cells, which were washed with PBS and incubated at 37 °C for 1 h with 50 µl RNase (1 mg/ml) (Sigma Aldrich, Germany), were stained for 15 minutes with PI (Molecular Probes, Eugene, Oregon, USA).

HCT-116 cells [5] = assay: MTT metabolic activity assay; type: cell-based, human; settings: for effect of combination with 5-FU on the inhibition of metabolic activity induced by 5-FU (in words): 5-FU 16 µM and 24 µM, MER, AMP, PIP 10, 50, 100 µg/mL, BenP, FLU 5, 25, 50 µg/mL
HCT-116 cells [6] = assay: Antibiotics' uptake by the cells, LC-MS/MS; settings: for Concentration of CFP, Lysate / Concentration of CFP, Supernatant: HCT-116 cells, CFP 50 µg/ml alone or + 5-FU 8 µM
Experimental: (§3) This step was repeated three times and cell homogenate were vortexed at high-speed prior extraction. 40 µl from each supernatant and cell suspension were combined with 200 µl of internal standard working solution prepared in ice-cold methanol. Samples were then centrifuged and 100 µl of the supernatant were diluted with 400 µl water in glass vials prior analysis with LC-/MS/MS.

DLD-1 cells [7] = assay: Antibiotics' uptake by the cells, LC-MS/MS; settings: for Concentration of CFP, Lysate / Concentration of CFP, Supernatant: CFP 50 µg/ml alone or + 5-FU 16 µM
Experimental: as §3

HCT-116 cells [8] = assay: Caspase-3/7 activity assay; type: cell-based, human; settings: combined with 5-FU 8 µM, 48 and 72h, CFT 100 µg/ml, CFP 50 µg/ml
Experimental: as §2

[9] = Stability in media, LC-MS/MS; type: physicochemical; settings: antibiotic alone (CFP 50 µg/mL, CFT 100 µg/mL)
Experimental: B) CFT (100 µg/ml) ± 5-FU (8 µM and 16 µM). P value (a) (between antibiotic alone and 5-FU (8 µM)); P value (b) (between antibiotic alone and 5-FU (16 µM)), n = 3.

O=c1[nH]cc(F)c(=O)[nH]1 [5-FU, 5-fluorouracil]
inhibition at 4 µM (Caco-2 cells): 22% | caspase 3/7 activity / apoptosis induction (in words) (DLD-1 cells [1]): did not induce caspase 3/7 activity | inhibitory effect vs. control untreated cells (metabolic activity) (DLD-1 cells [2]): 18% | decrease of metabolic activity (RAW 264.7 cells; 24 h of treatment): 80% | metabolic activity of macrophages (in words) (RAW 264.7 cells; 48 h post-treatment): sustained up to 48 h | percentage of cells in G0/G1 (DLD-1 cells [3]; 48 h): 49.3 ± 4.4% | percentage of cells in G2/M (DLD-1 cells [3]; 48 h): 10.3 ± 1.7^(a) % | percentage of cells in Pre G1 (DLD-1 cells [3]; 48 h): 6.3 ± 2.3% | percentage of cells in S (DLD-1 cells [3]; 48 h): 32.0 ± 6.1^(a) % | percentage of cells in G0/G1 (DLD-1 cells [3]; 72 h): 69.4 ± 5.0% | percentage of cells in G2/M (DLD-1 cells [3]; 72 h): 5.4 ± 2.7^(a) % | percentage of cells in Pre G1 (DLD-1 cells [3]; 72 h): 4.7 ± 0.3% | percentage of cells in S (DLD-1 cells [3]; 72 h): 20.1 ± 2.9^(a) % | increase in the percentage of cells in the pre-G1 phase vs. control (HCT-116 cells [4]; 48 h): 3 fold | percentage of cells in G0/G1 (HCT-116 cells [4]; 48 h): 48.4 ± 2.3^(a) % | percentage of cells in G2/M (HCT-116 cells [4]; 48 h): 22.3 ± 2.9% | percentage of cells in Pre G1 (HCT-116 cells [4]; 48 h): 16.9 ± 2.5^(a) % | percentage of cells in S (HCT-116 cells [4]; 48 h): 10.6 ± 1.0% | increase in the percentage of cells in the pre-G1 phase vs. control (HCT-116 cells [4]; 72 h): 8.2 fold | percentage of cells in G0/G1 (HCT-116 cells [4]; 72 h): 39.0 ± 9.5^(a) % | percentage of cells in G2/M (HCT-116 cells [4]; 72 h): 16.4 ± 2.4^(a) % | percentage of cells in Pre G1 (HCT-116 cells [4]; 72 h): 36.7 ± 11.7^(a) % | percentage of cells in S (HCT-116 cells [4]; 72 h): 6.6 ± 0.7%

CC1(C)S[C@@H]2[C@H](NC(=O)[C@H](N)c3ccccc3)C(=O)N2[C@H]1C(=O)O [AMP, ampicillin]
effect of combination with 5-FU on the inhibition of metabolic activity induced by 5-FU (in words) (HCT-116 cells [5]): does not affect the inhibition

CC1(C)S[C@@H]2[C@H](NC(=O)Cc3ccccc3)C(=O)N2[C@H]1C(=O)O [BenP, benzylpenicillin]
effect of combination with 5-FU on the inhibition of metabolic activity induced by 5-FU (in words) (HCT-116 cells [5]): does not affect the inhibition

CO/N=C(\C(=O)N[C@@H]1C(=O)N2C(C(=O)[O-])=C(C[N+]3(C)CCCC3)CS[C@H]12)c1csc(N)n1 [CFP, cefepime]
Concentration of CFP, Lysate (HCT-116 cells [6]; 2 h): 0.018 ± 0.004 | Concentration of CFP, Supernatant (HCT-116 cells [6]; 2 h): 44.1 and 44.100 ± 3.395 | Concentration of CFP, Lysate (HCT-116 cells [6]; 4 h): 0.022 ± 0.005 | Concentration of CFP, Supernatant (HCT-116 cells [6]; 4 h): 34.500 ± 3.818 | Concentration of CFP, Lysate (HCT-116 cells [6]; 6 h): 0.050 ± 0.003 | Concentration of CFP, Supernatant (HCT-116 cells [6]; 6 h): 35.250 ± 1.485 | Concentration of CFP, Lysate (HCT-116 cells [6]; 8 h): 0.032 ± 0.002 | Concentration of CFP, Supernatant (HCT-116 cells [6]; 8 h): 35.9 and 35.850 ± 1.909 | average uptake in HCT-116 cells compared to DLD-1 cells (HCT-116 cells [6]; up to 8h): 2 folds | Concentration of CFP, Lysate (DLD-1 cells [7]; 2 h): 0.012 ± 0.005 | Concentration of CFP, Supernatant (DLD-1 cells [7]; 2 h): 50.000 ± 1.697 | Concentration of CFP, Lysate (DLD-1 cells [7]; 4 h): 0.010 ± 0.0002 | Concentration of CFP, Supernatant (DLD-1 cells [7]; 4 h): 54.187 ± 0.849 | Concentration of CFP, Lysate (DLD-1 cells [7]; 6 h): 0.014 ± 0.0001 | Concentration of CFP, Supernatant (DLD-1 cells [7]; 6 h): 45.813 ± 3.818 | Concentration of CFP, Lysate (DLD-1 cells [7]; 8 h): 0.012 ± 0.001 | Concentration of CFP, Supernatant (DLD-1 cells [7]; 8 h): 47.947 ± 12.644 | average uptake by the cells (DLD-1 cells [7]; up to 8h): around 0.02% | effect on 5-FU's effect on metabolic activity (in words) (HCT-116 cells [5]; 48 h post-treatment, CFT 100 µg/mL, CFP 50 µg/mL combined with 5-FU): antagonized 5-FU's effect | effect on 5-FU-induced apoptosis (caspase 3/7, in words) (HCT-116 cells [8]): effect was seen only 72h post-treatment | percentage of cells in G0/G1 (DLD-1 cells [3]; 48 h): 48.8 ± 4.0% | percentage of cells in G2/M (DLD-1 cells [3]; 48 h): 18.4 ± 4.3% | percentage of cells in Pre G1 (DLD-1 cells [3]; 48 h): 2.6 ± 0.3% | percentage of cells in S (DLD-1 cells [3]; 48 h): 29.2 ± 8.1% | percentage of cells in G0/G1 (DLD-1 cells [3]; 72 h): 59.6 ± 3.6^(a) % | percentage of cells in G2/M (DLD-1 cells [3]; 72 h): 17.0 ± 3.5% | percentage of cells in Pre G1 (DLD-1 cells [3]; 72 h): 9.5 ± 4.1^(a) % | percentage of cells in S (DLD-1 cells [3]; 72 h): 13.1 ± 3.3^(a) % | Stability test, level in media ([9]; 2h in media): 49.9 ± 9.5 | Stability test, level in media ([9]; 8h in media): 48.8 ± 5.3 | percentage of cells in G0/G1 (HCT-116 cells [4]; 48 h): 51.7 ± 2.8% | percentage of cells in G2/M (HCT-116 cells [4]; 48 h): 24.6 ± 0.9% | percentage of cells in Pre G1 (HCT-116 cells [4]; 48 h): 4.9 ± 1.6% | percentage of cells in S (HCT-116 cells [4]; 48 h): 13.6 ± 1.6% | percentage of cells in G0/G1 (HCT-116 cells [4]; 72 h): 53.8 ± 3.6^(a) % | percentage of cells in G2/M (HCT-116 cells [4]; 72 h): 23.6 ± 2.2^(a) % | percentage of cells in Pre G1 (HCT-116 cells [4]; 72 h): 9.8% and 9.3 ± 2.9^(a) % | percentage of cells in S (HCT-116 cells [4]; 72 h): 7.4 ± 1.4%

Cc1onc(-c2c(F)cccc2Cl)c1C(=O)N[C@@H]1C(=O)N2[C@@H]1SC(C)(C)[C@@H]2C(=O)O [FLU, flucloxacillin]
effect of combination with 5-FU on the inhibition of metabolic activity induced by 5-FU (in words) (HCT-116 cells [5]): does not affect the inhibition

C[C@@H](O)[C@H]1C(=O)N2C(C(=O)O)=C(S[C@@H]3CN[C@H](C(=O)N(C)C)C3)[C@H](C)[C@H]12 [MER, meropenem]
effect of combination with 5-FU on the inhibition of metabolic activity induced by 5-FU (in words) (HCT-116 cells [5]): does not affect the inhibition

CCN1CCN(C(=O)N[C@@H](C(=O)N[C@@H]2C(=O)N3[C@@H]2SC(C)(C)[C@@H]3C(=O)O)c2ccccc2)C(=O)C1=O [PIP, piperacillin]
effect of combination with 5-FU on the inhibition of metabolic activity induced by 5-FU (in words) (HCT-116 cells [5]): does not affect the inhibition
